Laboratory results: patent US20020106705A1, “Detection method for monitoring beta tubulin isotype specific modification” (Tularik Inc., priority 1999, published 2002)

Columns and labels:
[1] = tested on: β-tubulin in white blood cells; assay: Western blot of white blood cells from rats after compound 1 infusion; type: in vivo, rat; conditions: 3 h infusion of compound 1 sodium salt, 20 mg/kg
Description: (§1) White blood cells (“WBC”) were isolated from blood samples (5 ml) taken immediately after a 3 h infusion of compound 1 sodium salt from rats or a human patient treated at 20 mg/kg and 220 mg/m2, respectively, as follows. The samples were mixed with 5 ml of PBS and layered on a Ficoll cushion (10 ml, “Lymphoprep” (density is ˜1.077 and osmolality 280 mOsm, Gibco/BRL). After centrifugation (1000 rpm, 30 min (Sorvall RC3C centrifuge)) at room temperature WBC were isolated from the cushion and the sample was diluted 1:5 with PBS. After centrifugation (2000 rpm for 10 min) the liquid was discarded and the cell pellet was resuspended in 1 ml of PBS. The solution was transferred to an Eppendorf tube and the cells were collected by centrifugation (3000 rpm, 5 min). After the supernatant was discarded the cell pellet was stored at −80° C. or processed as follows. Rat WBC-pellet was resuspended in 15 μl of IEF-buffer and mixed with 15 μl of 2× SDS sample buffer. The human sample was mixed immediately with an equal volume (10 μl) of SDS sample buffer. Protein samples ([…], human; 2 μl, rat) were analyzed by SDS-PAGE and subjected to western blot analyzes as outlined above.

[2] = tested on: β-tubulin in white blood cells; assay: Western blot of white blood cells from a human patient after compound 1 infusion; type: in vivo
Description: as §1
As a standard 10 μg of purified brain tubulin was mixed with […] of BRB80 buffer and incubated with 10 μl of ^3H-compound 1 (10 μCi) in a 500 μl reaction at […] for 2 h. […]

cellular tubulin = conditions: cited from earlier work
β-tubulin isotypes = conditions: cited from earlier work

## COc1ccc(NS(=O)(=O)c2c(F)c(F)c(F)c(F)c2F)cc1F [compound 1, 2-fluoro-1-methoxy-4-pentafluorophenylsulfonamidobenzene]
[1]
  β-tubulin modification in white blood cells (western blot with 2C1H7): a protein consistent of the size of β-tubulin was visible
[2]; human WBC sample, compared with 3H-compound 1-β-tubulin standard curve
  amount of loaded tubulin modified by compound 1: ~7.5 fmol
[2]; human patient, 3 h infusion of compound 1 sodium salt, 220 mg/m2
  β-tubulin modification in white blood cells (western blot with 2C1H7): a protein consistent of the size of β-tubulin was visible
Cellular tubulin
  binding to cellular tubulin: time- and concentration-dependent
β-tubulin isotypes
  modification of other cellular proteins: no other cellular proteins are modified
β-tubulin isotypes; five known β-tubulin isotypes, β1, β2, β4 have Cys239, β3 and β5 have serine
  covalent modification of β-tubulin isotypes: binding is restricted to those β-tubulin isotypes that have a cysteine residue at amino acid position 239 in β-tubulin
